Patent US20080293696A1, “2-Aminoarylcarboxamides Useful as Cancer Chemotherapeutic Agents” (Bayer Pharmaceuticals Corporation, priority 2004, published 2008)
pIC50: −log10 of the molar value. Structures can show the parent of a compound that is named as a salt.

System: PAKT/PKB (p-(S473) AKT) in H209 small cell lung carcinoma cells stimulated with Stem Cell Factor
Assay: PAKT/PKB Cytoblot Assay with H209 cells (SCF-stimulated p-(S473) AKT)
Type: cell-based
Conditions: Homo sapiens, NCI-H209, compound 1 hour, SCF 25 ng/mL 5 minutes, group: between 500 nM and 1 μM (units in value)
Method: PAKT/PKB Cytoblot Assay Protocol with H209 Cells
H209 small cell lung carcinoma cells in log phase were plated at 50,000 cells/well in 96-well poly-lysine coated, clear bottom/black-sided plates (BD Cat # 354640) in 100 μl RPMI medium containing 0.1% (w/v) BSA, and incubated overnight at 37° C. in 5% CO2 incubator. The following day, compounds (10 mM stock solutions in DMSO) were added to the plates to generate final concentrations of 0.0, 0.01, 0.03, 0.1, 0.3, 1.0, 3.0 and 10 μM for IC50 determinations and incubated for 1 hour at 37° C. Cells were then left untreated or stimulated with Stem Cell Factor (SCF: Biosource Cat # PHC2116) at a final concentration of 25 ng/mL for 5 minutes at 37° C. in 5% CO2 incubator. The media was then removed using a vacuum manifold and the cells were washed once with Tris Buffered Saline (TBS).
Cells were then fixed by adding 200 μl of cold 3.7% (v/v) formaldehyde in TBS to each well for 15 minutes at 4° C. After removal of the formaldehyde, the cells were treated with the addition of 50 μl of methanol (at −20° C.) to each well for 5 minutes. After removal of the methanol, […] of 1% (w/v) BSA in TBS was added to each well to block non-specific antibody binding sites and the plate was incubated at room temperature for 30 minutes.
After removal of the blocking buffer, 50 μl of p-(S473) AKT rabbit polyclonal antibody (Cell Signaling Cat # 9277S) was added at a dilution of 1:250 in 0.1% (w/v) BSA in TBS, and the plate was incubated at room temperature for 1 hour. Plates were then washed 3 times with cold TBS containing 0.05% (v/v) Tween 20 (TBS-T) and […] of Horseradish peroxidase (HRP)-conjugated goat-anti-rabbit antibody (Amersham Cat # NA934V) at a dilution of 1:250 in TBS-T was added and the plate was incubated at room temperature for 1 h. After washing with ice-cold TBS-T four times, 100 μl of Enhanced Chemiluminescence (ECL) reagent (Amersham Cat# RPN2209) was added to each well and mixed on a mini-orbital shaker for 1 min. The plate was then read on a Perkin Elmer Victor 5 Multilabel Counter (#1420-0421).

Compound | pIC50
CN(C)c1nccc(CNc2ccccc2C(=O)Nc2ccc3c(c2)OC(F)(F)C(F)(F)O3)n1 [Example 50, 2-({[2-(dimethylamino)pyrimidin-4-yl]methyl}amino)-N-(2,2,3,3-tetrafluoro-2,3-dihydro-1,4-benzodioxin-6-yl)benzamide] | 6.00 to 6.30
O=C(Nc1ccc2c(c1)OC(F)(F)O2)c1ccccc1NCc1ccnc(NCCc2ccccc2)c1 [Example 150, N-(2,2-difluoro-1,3-benzodioxol-5-yl)-2-[({2-[(2-phenylethyl)amino]pyridin-4-yl}methyl)amino]benzamidetrifluoroacetate] | 6.00 to 6.30
CCN(CC)CCCC(C)NC(=O)c1cc(CNc2ccccc2C(=O)Nc2ccc3c(c2)OC(F)(F)O3)ccn1 (centres unmarked) [Example 108, N-[4-(diethylamino)-1-methylbutyl]-4-{[(2-{[(2,2-difluoro-1,3-benzodioxol-5-yl)amino]carbonyl}phenyl)amino]methyl}pyridine-2-carboxamide] | 6.00 to 6.30

Same assay, conditions: Homo sapiens, NCI-H209, compound 1 hour, SCF 25 ng/mL 5 minutes, group: between 1 and 3 μM

Compound | pIC50
CSCC[C@@H](CO)NC(=O)c1cc(CNc2ccccc2C(=O)Nc2ccc3c(c2)OC(F)(F)O3)ccn1 [Example 127, 4-{[(2-{[(2,2-difluoro-1,3-benzodioxol-5-yl)amino]carbonyl}phenyl)amino]methyl}-N-[(1S)-1-(hydroxymethyl)-3-(methylthio)propyl]pyridine-2-carboxamide] | 5.52 to 6.00
O=C(NCCc1cccs1)c1cc(CNc2ccccc2C(=O)Nc2ccc3c(c2)OC(F)(F)O3)ccn1 [Example 128, 4-{[(2-{[(2,2-difluoro-1,3-benzodioxol-5-yl)amino]carbonyl}phenyl)amino]methyl}-N-[2-(2-thienyl)ethyl]pyridine-2-carboxamide] | 5.52 to 6.00
O=C(NC1CCN(Cc2ccccc2)C1)c1cc(CNc2ccccc2C(=O)Nc2ccc3c(c2)OC(F)(F)O3)ccn1 (centres unmarked) [Example 118, N-(1-benzylpyrrolidin-3-yl)-4-{[(2-{[(2,2-difluoro-1,3-benzodioxol-5-yl)amino]carbonyl}phenyl)amino]methyl}pyridine-2-carboxamide] | 5.52 to 6.00

Same assay, conditions: Homo sapiens, NCI-H209, compound 1 hour, SCF 25 ng/mL 5 minutes, group: less than 500 nM

Compound | pIC50
COc1cccc(NCc2ccncc2)c1C(=O)Nc1ccc2c(c1)C(F)(F)OC(F)(F)O2 [Example 10, 2-methoxy-6-[(pyridin-4-ylmethyl)amino]-N-(2,2,4,4-tetrafluoro-4H-1,3-benzodioxin-6-yl)benzamide] | > 6.30
CCN(CC)CCNC(=O)c1cc(CNc2ccccc2C(=O)Nc2ccc3c(c2)OC(F)(F)O3)ccn1 [Example 88, N-[2-(diethylamino)ethyl]-4-{[(2{[(2,2-difluoro-1,3-benzodioxol-5-yl)amino]carbonyl}phenyl)amino]methyl}pyridine-2-carboxamide] | > 6.30
O=C(NCCCN1CCCC1=O)c1cc(CNc2ccccc2C(=O)Nc2ccc3c(c2)OC(F)(F)O3)ccn1 [Example 123, 4-{[(2-{[(2,2-difluoro-1,3-benzodioxol-5-yl)amino]carbonyl}phenyl)amino]methyl}-N-[3-(2-oxopyrrolodin-1-yl)propyl]pyridine-2-carboxamide] | > 6.30
Cc1ccc(C(=O)Nc2ccc3c(c2)OC(F)(F)C(F)(F)O3)c(NCc2ccncc2)n1 [Example 13, 6-methyl-2-[(pyridin-4-ylmethyl)amino]-N-(2,2,3,3-tetrafluoro-2,3-dihydro-1,4-benzodioxin-6-yl)nicotinamide] | > 6.30
CC(C)(CO)CNc1cc(CNc2ccccc2C(=O)Nc2ccc3c(c2)OC(F)(F)O3)ccn1 [Example 141, N-(2,2-difluoro-1,3-benzodioxol-5-yl)-2-[({2-[(3-hydroxy-2,2-dimethylpropyl)amino]pyridin-4-yl}methyl)amino]benzamide trifluoroacetate(salt)] | > 6.30
CCCCNC(=O)Nc1cc(CNc2ccccc2C(=O)Nc2ccc3c(c2)OC(F)(F)O3)ccn1 [Example 170, 2-{[(2-{[(butylamino)carbonyl]amino}pyridin-4-yl)methyl]amino}-N-(2,2-difluoro-1,3-benzodioxol-5-yl)benzamide] | > 6.30
O=C(NCc1ccco1)Nc1cc(CNc2ccccc2C(=O)Nc2ccc3c(c2)OC(F)(F)O3)ccn1 [Example 173, N-(2,2-difluoro-1,3-benzodioxol-5-yl)-2-({[2-({[(2-furylmethyl)amino]carbonyl}amino)pyridin-4-yl]methyl}amino)benzamide] | > 6.30
O=C(Nc1ccc2c(c1)OC(F)(F)O2)c1ccccc1NCc1ccnc(NCCOCCO)c1 [Example 138, N-(2,2-difluoro-1,3-benzodioxol-5-yl)-2-{[(2-{[2-(2-hydroxyethoxy)ethyl]amino}pyridin-4-yl)methyl]amino}benzamide trifluoroacetate(salt)] | > 6.30
CN(C)CCCCCNC(=O)c1cc(CNc2ccccc2C(=O)Nc2ccc3c(c2)OC(F)(F)O3)ccn1 [Example 100, 4-{[(2-{[(2,2-difluoro-1,3-benzodioxol-5-yl)amino]carbonyl}phenyl)amino]methyl)-N-[5-(dimethylamino)pentyl]pyridine2-carboxamide] | > 6.30
CCNC(=O)c1cc(CNc2ccccc2C(=O)Nc2ccc3c(c2)OC(F)(F)C(F)(F)O3)ccn1 [Example 44, N-ethyl-4-{[(2-{[(2,2,3,3-tetrafluoro-2,3-dihydro-1,4-benzodioxin-6-yl)amino]carbonyl}phenyl)amino]methyl}pyridine-2-carboxamide] | > 6.30
CNc1nccc(CNc2ccccc2C(=O)Nc2ccc3c(c2)OC(F)(F)C(F)(F)O3)n1 [Example 51, 2-({[2-(methylamino)pyrimidin-4-yl]methyl}amino)-N-(2,2,3,3-tetrafluoro-2,3-dihydro-1,4-benzodioxin-6-yl)benzamide] | > 6.30
O=C(NCCO)c1cc(CNc2ccccc2C(=O)Nc2ccc3c(c2)OC(F)(F)O3)ccn1 [Example 91, 4-{[(2-{[(2,2-difluoro-1,3-benzodioxol-5-yl)amino]carbonyl}phenyl)amino]methyl}-N-(2-hydroxyethyl)pyridine-2-carboxamide] | > 6.30
CN(C)c1nccc(CNc2ccccc2C(=O)Nc2ccc3c(c2)OC(F)(F)O3)n1 [Example 48, N-(2,2-difluoro-1,3-benzodioxol-5-yl)-2-({[2-(dimethylamino)pyrimidin-4-yl]methyl}amino)benzamide] | > 6.30
O=C(Nc1ccc2c(c1)OC(F)(F)C(F)(F)O2)c1cnccc1NCc1ccncc1 [Example 14, 4-[(pyridin-4-ylmethyl)amino]-N-(2,2,3,3-tetrafluoro-2,3-dihydro-1,4-benzodioxin-6-yl)nicotinamide] | > 6.30
CC(=O)Nc1cc(CNc2ccccc2C(=O)Nc2ccc3c(c2)OC(F)(F)O3)ccn1 [Example 152, 2-({[2-(acetylamino)pyridin-4-yl]methyl}amino)-N-(2,2-difluoro-1,3-benzodioxol-5-yl)benzamide] | > 6.30
O=C(NCc1ccncc1)c1cc(CNc2ccccc2C(=O)Nc2ccc3c(c2)OC(F)(F)O3)ccn1 [Example 104, 4-{[(2-{[(2,2-difluoro-1,3-benzodioxol-5-yl)amino]carbonyl}phenyl)amino]methyl}-N-(pyridin-4-ylmethyl)pyridine-2-carboxamide] | > 6.30
O=C(NCc1ccc(N2CCOCC2)cc1)c1cc(CNc2ccccc2C(=O)Nc2ccc3c(c2)OC(F)(F)O3)ccn1 [Example 133, 4-{[(2-{[(2,2-difluoro-1,3-benzodioxol-5-yl)amino]carbonyl}phenyl)amino]methyl}-N-(4-morpholin-4-ylbenzyl)pyridine-2-carboxamide] | > 6.30
COc1cccc(NCc2ccncc2)c1C(=O)Nc1ccc2c(c1)OC(F)(F)C(F)(F)O2 [Example 9, 2-methoxy-6-[(pyridin-4-ylmethyl)amino]-N-(2,2,3,3-tetrafluoro-2,3-dihydro-1,4-benzodioxin-6-yl)benzamide] | > 6.30
CCOCCCNC(=O)c1cc(CNc2ccccc2C(=O)Nc2ccc3c(c2)OC(F)(F)O3)ccn1 [Example 110, 4-{[(2-{[(2,2-difluoro-1,3-benzodioxol-5-yl)amino]carbonyl}phenyl)amino]methyl}-N-(3-ethoxypropyl)pyridine-2-carboxamide] | > 6.30
O=C(Nc1ccc2c(c1)OC(F)(F)O2)c1ccccc1NCc1ccnc(NCCO)c1 [Example 134, N-(2,2-difluoro-1,3-benzodioxol-5-yl)-2-[({2-[(2-hydroxyethyl)amino]pyridin-4-yl}methyl)amino]benzamide trifluoroacetate (salt)] | > 6.30
